# Experimental data taken from ChEMBL document CHEMBL1124304 (J Med Chem, 1988).
# How the values were obtained:
# [1] = target: T1, Adenosine receptor A1 (Rattus norvegicus) (UniProt P25099); assay: (§1) Reduction of heart rate (A1 response) in isolated rat heart preparation; assay type: functional, tissue-based
# T1 sequence (whole entry): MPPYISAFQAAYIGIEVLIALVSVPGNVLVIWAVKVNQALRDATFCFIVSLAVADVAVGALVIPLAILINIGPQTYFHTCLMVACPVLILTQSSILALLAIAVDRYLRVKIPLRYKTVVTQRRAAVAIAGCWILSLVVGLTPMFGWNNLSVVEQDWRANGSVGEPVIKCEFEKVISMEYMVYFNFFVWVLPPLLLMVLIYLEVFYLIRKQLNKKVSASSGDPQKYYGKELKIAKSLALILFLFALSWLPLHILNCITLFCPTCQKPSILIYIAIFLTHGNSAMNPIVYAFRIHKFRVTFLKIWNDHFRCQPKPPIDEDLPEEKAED
# [2] = target: T2, Adenosine A2 receptor (Rattus norvegicus) (UniProt P29276+P30543)
# [3] = target: T2, Adenosine A2 receptor (Rattus norvegicus); remark: listed apart in the source
# Adenosine A2 receptor = Adenosine A2 receptor (Rattus norvegicus, UniProt P29276+P30543)
# Description: Binding affinity towards adenosine A2 receptor on rat striatal membrane using [3H]NECA as radioligand
# Adenosine receptor A1 = target: T3, Adenosine receptor A1 (Rattus norvegicus, UniProt P25099)
# T3 sequence (P25099 whole entry): T1 sequence (whole entry)
# Description: Binding affinity towards adenosine A1 receptor on rat whole brain membrane using [3H]N6-cyclohexyladenosine
# Rattus norvegicus [4] = organism: Rattus norvegicus; assay: Enhancement of coronary flow (A2 response) in isolated rat heart preparation; assay type: functional
# Rattus norvegicus [5] = organism: Rattus norvegicus; assay: as §1; assay type: functional
SMILES,EC25 [2],EC25 [3],Ki (Adenosine A2 receptor),Ki (Adenosine receptor A1),EC25 [1],EC25 (Rattus norvegicus [4]),EC25 (Rattus norvegicus [5])
OC[C@H]1O[C@@H](n2cnc3c(NCC(c4ccccc4)c4ccccc4)ncnc32)[C@H](O)[C@@H]1O,10 nM,–,–,–,90 nM,–,–
OC[C@H]1O[C@@H](n2cnc3c(NC4CCCC4)ncnc32)[C@H](O)[C@@H]1O,> 100 nM,–,–,–,3 nM,–,–
OC[C@H]1O[C@@H](n2cnc3c(NCCc4ccccc4)ncnc32)[C@H](O)[C@@H]1O,70 nM,–,160 nM,–,300 nM,–,–
C[C@H](Cc1ccccc1)Nc1ncnc2c1ncn2[C@@H]1O[C@H](CO)[C@@H](O)[C@H]1O,10 nM,–,–,–,13 nM,–,–
OC[C@H]1O[C@@H](n2cnc3c(NCc4ccccc4)ncnc32)[C@H](O)[C@@H]1O,35 nM,–,–,–,2300 nM,–,–
Nc1nc(Nc2ccccc2)nc2c1ncn2[C@@H]1O[C@H](CO)[C@@H](O)[C@H]1O,3 nM,–,–,–,7000 nM,–,–
Nc1nc(Cl)nc2c1ncn2[C@@H]1O[C@H](CO)[C@@H](O)[C@H]1O,13 nM,–,–,–,170 nM,–,–
CCNC(=O)[C@H]1O[C@@H](n2cnc3c(N)ncnc32)[C@H](O)[C@@H]1O [NECA],–,–,–,–,–,1.1 nM,21 nM

# More lines, main results first:
EC25 [2],EC25 [3],Ki (Adenosine A2 receptor),Ki (Adenosine receptor A1),SMILES,EC25 [1],EC25 (Rattus norvegicus [4]),EC25 (Rattus norvegicus [5])
–,400 nM,4300 nM,320 nM,OC[C@H]1OC(n2cnc3c(NCCC4c5ccccc5-c5ccccc54)ncnc32)[C@H](O)[C@@H]1O (stereo partly specified),> 3000 nM,–,–
–,1.2 nM,9.1 nM,24 nM,OC[C@H]1O[C@@H](n2cnc3c(NCc4cccc5ccccc45)ncnc32)[C@H](O)[C@@H]1O,400 nM,–,–
–,–,29000 nM,9000 nM,OC[C@H]1OC(n2cnc3c(NCc4c5ccccc5cc5ccccc45)ncnc32)[C@H](O)[C@@H]1O (stereo partly specified),–,–,–
–,2 nM,–,–,OC[C@H]1O[C@@H](n2cnc3c(NCC4c5ccccc5-c5ccccc54)ncnc32)[C@H](O)[C@@H]1O,100 nM,–,–
–,–,390 nM,160 nM,OC[C@H]1OC(n2cnc3c(NCC4c5ccccc5CCc5ccccc54)ncnc32)[C@H](O)[C@@H]1O (stereo partly specified),–,–,–
–,2 nM,48 nM,62 nM,OC[C@H]1OC(n2cnc3c(NCC4c5ccccc5Oc5ccccc54)ncnc32)[C@H](O)[C@@H]1O (stereo partly specified),1200 nM,–,–
–,–,42000 nM,6200 nM,OC[C@H]1OC(n2cnc3c(NC4c5ccccc5-c5ccccc54)ncnc32)[C@H](O)[C@@H]1O (stereo partly specified),–,–,–
–,30 nM,230 nM,12.3 nM,OC[C@H]1OC(n2cnc3c(NCCc4cccc5ccccc45)ncnc32)[C@H](O)[C@@H]1O (stereo partly specified),110 nM,–,–
